Where two headings read alike, the source gives them in different places.
Assays:
[1] = cited from earlier work
[2] = Table 1A, cited from earlier work
[3] = cited from earlier work; remark: listed apart in the source
[4] = Amount of No. 6 Fuel dissolved; type: physicochemical; conditions: for Amount of No. 6 Fuel Dissolved: Table 1B
[5] = cited from earlier work; remark: listed apart in the source
[6] = tested on: Rat; conditions: inhalation, Table 1B; cited from earlier work

SMILES | Boil Pt. ([1]; Table 1A) [°C] | Sol. in Water ([2]; in words) | ε, Dielectric Constant ([3]; Table 1A) | other results
C=COC(C)=O [Vinyl acetate] | 72 | sl. sol. | – | –
C1=CCCCC1 [Cyclohexene] | 82 | sl. sol. | 2.20 | –
ClCCl [Methylene Chloride] | 40.2 | – | 9.08 | –
c1ccccc1 [Benzene] | – | sl. sol. | 2.27 | –
c1ccsc1 [Thiophene] | 83 | sl. sol. | 2.76 | –
C=CCCCCC [Heptene-1] | 93 | ca. sl. sol. | ca. 2.05 | –
S=C=S [Carbon disulfide] | 46 | – | 2.64 | –
CCSC [Ethyl methyl sulfide] | 66 | V. sl. sol. | ~5.72 | –
CCOC(C)=O [Ethyl acetate] | 77 | sl. sol. | 6.02 | Amount of No. 6 Fuel Dissolved [4]: 31.71%; Boil Pt. ([1]; Table 1B): 77 °C; ε, Dielectric Constant ([3]; -20° C., Table 1B): 6.02; Hazards, Comments ([5]; Table 1A, code numbers): 44; LC50(ihl) -Rat [6]: 1,600 ppm
ClC(Cl)Cl [Chloroform] | 60 | Vsl. sol. | 4.81 | Boil Pt. ([1]; Table 1B): 60 °C; ε, Dielectric Constant ([3]; -20° C., Table 1B): 4.80; LC50(ihl) -Rat [6]: 8,000 ppm
CSC [Methyl sulfide] | 37 | sl. sol. | 6.2 | Boil Pt. ([1]; Table 1B): 37 °C; ε, Dielectric Constant ([3]; -20° C., Table 1B): 6.2
c1ccoc1 [Furan] | 32 | sl. sol. | – | –
C=COC=C [Vinyl ether] | 28 | sl. sol. | 3.94 | –
CCSCC [Ethyl sulfide] | 91 | V. sl. sol. | 5.72 | –
CCC(C)=O [Butanone] | – | sol. | 18.5 | –
COC(C)(C)C [Methyl t-Butyl ether, methyl tertiary-butyl ether] | 55 | sl. sol. | ca. 4.00 | Amount of No. 6 Fuel Dissolved [4]: 99.74%; Boil Pt. ([1]; Table 1B): 55 °C; ε, Dielectric Constant ([3]; -20° C., Table 1B): 4.0
CCOCC [Ethyl ether] | 34.6 | – | 4.34 | Sol. in Water [2]: 7.5 g/100 g
ClCCl [Methyl chloride] | – | – | – | Boil Pt. ([1]; Table 1B): 40 °C
CC1CCCC1 [Methyl cyclopentane] | 72 | V. sl. sol. | – | –
CCCCCC [Hexane, n-hexane] | – | insol. | 1.89 | solubility of No. 6 oil, in words ([4]; compared with hexane/methyl tertiary-butyl ether (80:20 v/v)): much less soluble in hexane; adverse effects on absorption through the skin ([5]; nervous system): can be absorbed through the skin causing adverse effects to the nervous system, including a lack of feeling in the extremities and dizziness
C=CCCC [Pentene-1] | 37 | – | 2.10 | Sol. in Water [2]: 0.04%
CO [methyl alcohol] | – | – | – | dielectric constant ε ([3]; alcohols): 31
C1CCCC1 [Cyclopentane] | 49 | sl. sol. | 1.965 | –
C1=CCCC1 [Cyclopentene] | < 49 | – | 2.20 | –
ClC(Cl)(Cl)Cl [Carbon tetrachloride] | 76 | Vsl. sol. | 2.24 | Boil Pt. ([1]; Table 1B): 76 °C; ε, Dielectric Constant ([3]; -20° C., Table 1B): 2.238; LC50(ihl) -Rat [6]: 4,000 ppm
FC(F)(Cl)C(F)(Cl)Cl [FREON ®, 1,1,2-trichloro-1,2,2-trifluoroethane] | 50 | insol. | – | Amount of No. 6 Fuel Dissolved [4]: 41.01%; Boil Pt. ([1]; Table 1B): 50 °C
C=CC(=O)OCC [Ethyl acrylate] | 99 | – | – | –
C=CCCCC [Hexene-1] | 63 | ca. sl. sol. | ca. 2.05 | –
